Measured values taken from patent US20250145600A1, “2-((4-((S)-2-(4-CHLORO-2-FLUOROPHENYL)-2-METHYLBENZO[D][1,3]DIOXOL-4-YL)PIPERIDIN-1-YL)METHYL)-1-(((S)-OXETAN-2-YL)METHYL)-1H-IMIDAZOLE DERIVATIVES AS ACTIVATORS OF THE GLP1 RECEPTOR FOR THE TREATMENT OF OBESITY” (Novartis AG, priority 2022, published 2025).

Target: human GLP1R (hGLP1R) (Homo sapiens, UniProt P43220)
Assay: Human GLP1R cAMP agonist assay (GloSensor cAMP Assay)
Type: cell-based
Details: HEK293-SNAP-hGLP1R-GloSensor cells
Description: Compounds of formula (I) according to the invention were tested in the following cellular assays that measure the intracellular cAMP concentration, beta-arrestin recruitment and receptor internalization. The cAMP is generated by the activation of GLP1R. The extent to which the GLP1R is internalized into the cell and away from the plasma membrane following activation is also shown in Table 2. EC50 for each assay is defined as the concentration of the compound that leads to half of the maximum response (after baseline correction). Emax is defined as the maximum response observed for the test compound, normalized to the maximum response observed for the endogenous ligand (GLP1(7-36)) to GLP1R.
Human GLP1R cAMP Agonist Assay
The agonist activity of compounds was determined using the GloSensor™ cAMP Assay (Promega Corp.), which measures changes in the intracellular concentration of cAMP after ligand activation of GPCRs. The assay uses a biosensor encoded by pGloSensor™-22F cAMP plasmid (Promega, cat #E2301) with cAMP binding domains fused to a mutant form of Photinus pyralis luciferase. Binding to cAMP causes conformational changes that promote large increases in light output, which can be measured by a luminescence detector. HEK293-SNAP-hGLP1R-GloSensor cells stably overexpressing the human GLP1 receptor (hGLP1R) and pGloSensor™-22F were seeded in white 384-well poly-D-Lysine coated plates (Greiner Bio One, cat #781945) in CO2-independent media (Gibco cat #18045-088 with 1.0% FBS, 2 mM L-glutamine, penicillin and streptomycin) and incubated overnight at 37° C., 5% CO2 with humidity. The assay was started the following morning by adding an equal volume of CO2-independent media containing 4% v/v dilution of the GloSensor substrate (Promega, cat #E1291) to all wells. The cell plate was incubated at rt for 2 h in the dark. The Biomek 7 (Beckman Coulter) instrument was used for the liquid handling steps. To generate duplicate dose response curves, 3-fold serially diluted compounds were added in to the cell assay plate to a final volume of 60 μL with final concentrations ranging from 30 μM through 0.06 μM in CO2-independent media containing 0.1% BSA, 0.5 mM IBMX and 0.4% DMSO. In the same plate and assay buffer as the tested compounds, were EC100 control wells containing GLP1 (7-36) peptide (Bachem, cat #H-6795) at a final concentration of 2 nM and also EC0 control wells containing no peptide. This plate was incubated at rt in the dark for 12 min after adding the compounds to the cells. Luminescence was then measured with an Envision 2104 Multilabel reader with “TRF Light Unit, 337 nm” (PerkinElmer) using the Ultra-Sensitive protocol setting “384-well US luminescence detector” with the 384-well luminescence aperture, 0.1 seconds per well. cAMP activity was calculated as percent of the GLP1 (7-36) EC100 control wells: [(sample signal−mean EC0 signal)/(mean EC100 of GLP1 (7-36) signal−mean EC0 signal)}*100. Curve fitting for EC50 determinations was performed in the Helios module of the software package DAVID. The 4-parameter logistic model, Hill slope was used: y=Ainf+(A0−Ainf)/(1+(x/AC50)^Hill Slope) where y is the functional response; x is the compound concentration; A0 is the minimum value (at 0 dose); Ainf is the maximum value (at infinite dose); AC50 corresponds to the point of inflection (i.e. the point on the sigmoid shaped curve halfway between A0 and Ainf). The EC50 value was represented by the AC50 value calculated from Helios in μM. Emax is the maximal activity detected within the concentration range, derived from the fitted curve.
327 μL of Opti-MEM medium (Gibco, cat #31985-062) were mixed with 12 μL of FuGENE® HD (Promega, cat #E2311) and incubated at rt for 5 min. Then 8.2 μL (4 μg, 0.485 μg/μL solution) of pSNAP-hGLP1R plasmid (Cisbio, cat #PSNAP-GLP1) encoding human GLP1R (NCBI Reference Sequence: NM_002062.3) fused with Cisbio's SNAP tag was added in to the Fugene HD/Opti-MEM mix, and incubated at rt for 20 min. […]

human GLP1R (hGLP1R), sequence (P43220 24-463): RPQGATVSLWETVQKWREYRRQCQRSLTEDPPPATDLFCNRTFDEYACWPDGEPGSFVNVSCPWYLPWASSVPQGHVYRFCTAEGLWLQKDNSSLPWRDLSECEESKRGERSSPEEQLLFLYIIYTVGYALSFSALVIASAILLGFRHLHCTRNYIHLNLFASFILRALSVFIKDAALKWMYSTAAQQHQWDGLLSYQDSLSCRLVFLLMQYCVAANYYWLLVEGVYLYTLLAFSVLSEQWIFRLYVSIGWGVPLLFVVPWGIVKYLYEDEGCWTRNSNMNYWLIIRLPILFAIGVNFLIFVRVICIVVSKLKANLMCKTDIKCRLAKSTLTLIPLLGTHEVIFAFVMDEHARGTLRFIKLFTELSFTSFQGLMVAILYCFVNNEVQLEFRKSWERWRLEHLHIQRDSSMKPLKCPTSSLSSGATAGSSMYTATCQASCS

In the case of `Cc1c(-c2ccc(C(=O)O)o2)nc(CN2CCC(c3cccc4c3O[C@@](C)(c3ccc(Cl)cc3F)O4)CC2)n1C[C@@H]1CCO1` [Compound C-24, 5-(2-((4-((S)-2-(4-chloro-2-fluorophenyl)-2-methylbenzo[d][1,3]dioxol-4-yl)piperidin-1-yl)methyl)-5-methyl-1-(((S)-oxetan-2-yl)methyl)-1H-imidazol-4-yl)furan-2-carboxylic acid], the Emax (cAMP activity as percent of GLP1 (7-36) EC100 control) is reported as 113% and the EC50 (intracellular cAMP, 12 min at rt) is reported as 0.102 nM.
